Reference: patent US20090176696A1, “Methods And Compositions For Modulating An Immune Response” (priority 2006, published 2009)
“Also recorded” adds a separate entry of the source.

Experiments:
[1] = system: cultured hamster respiratory epithelia; conditions: B. pertussis TCT; cited from earlier work
[2] = system: BMDC with CD4+ T cells from OVA TCR transgenic mice; test: TCT pre-treated BMDC cultured with OVA and CD4+ T cells from OVA TCR Tg mice; cytokines by ELISA; type: cell-based; conditions: DC pre-treated with TCT 10 μg/ml for 2 hours; supernatant after 4 days
Method: Dendritic cells act as antigen presenting cells and also serve to direct the induction of distinct T cell responses. Therefore, we examined the influence of TCT on dendritic cells and their ability to promote T cell responses in vitro. Bone marrow-derived dendritic cells DC (BMDC) were cultured with CD4^+ T cells (4×10^5) from OVA T cell receptor (TCR) transgenic (Tg) mice. BMDC were pre-treated with TCT (10 μg/ml) or medium only for 2 hours prior to the addition of antigen (OVA 0.2-5 μg/ml) and CD4^+ T cells purified from the spleens of OVA TCR Tg mice. OVA-specific cytokine production was measured in supernatant taken after 4 days by ELISA.

[3] = system: KLH-specific T cell and antibody responses; test: TCT injection 6 hours before immunisation with KLH or KLH with alum; ex vivo spleen and lymph node responses and antibody titres; type: in vivo, BALB/c mice
Method: Cohorts of BALB/c mice were injected sub-cutaneously (s.c.) into the flank with PBS or TCT alone, and then immunised sub-cutaneously with KLH or KLH with alum 6 hours later. The adaptive immune response was assessed 14 days later by stimulating spleen and local inguinal lymph node cells with antigen ex vivo. Spleen (FIG. 6A) and lymph node (FIG. 6B) cell suspensions were cultured in the presence of various concentrations of KLH (2, 10, 50 μg/ml) and PMA/anti-CD3 or medium were used as positive and negative controls respectively. Supernatants were collected 72 hours later, fresh medium was added to the wells and cells were incubated overnight. At day 4, 2 μCi of ^3H thymidine was added to each well. Plates were incubated for a further 6 hours, and ^3H incorporation was determined.
In addition, supernatants were tested for IFN-gamma, IL-10, IL-4 and IL-5 by ELISA (spleen—FIG. 7 and lymph nodes—FIG. 8). KLH-specific antibody titres were also determined by ELISA (FIG. 9).

[4] = system: KLH-specific T cell responses; test: Footpad immunisation with KLH (PBS, alum or LPS) with or without TCT; popliteal lymph node cytokines; type: in vivo, BALB/c mice
Method: BALB/c mice were injected subcutaneously into the footpad with either PBS alone, KLH (20 μg), KLH adsorbed to alum, KLH+LPS (10 μg) or KLH+TCT (10 or 25 μg), KLH+LPS+TCT or KLH+TCT adsorbed to alum. 5 days later mice were sacrificed and the popiliteal LNs were removed. Single LN cell suspensions were cultured in the presence of increasing concentrations of KLH (2-50 μg/ml) or PMA/CD3 or medium as positive and negative controls respectively. Supernatants were taken 3 days later and tested for IFN-γ, IL-10, IL-4 and IL-5 by ELISA. Results are mean (+/−SD) values for 5 mice per group.

[5] = system: Experimental autoimmune encephalomyelitis (EAE); test: Experimental autoimmune encephalomyelitis (EAE) induced with MOG peptide 35-55 in CFA; type: in vivo, C57BL/6 mice
Method: EAE was induced in C57BL/6 mice by subcutaneous immunisation with 150 μg MOG peptide 35-55 emulsified in CFA supplemented with 5 mg/ml of killed Mycobacterium tuberculosis. Mice were injected intraperitoneally (i.p) with 500 ng of pertussis toxin (PT) on days 0 and 2. Mice were injected with either PBS or TCT (10 μg/mouse) s.c in the flank on day 1 post EAE induction and every 3-4 days thereafter (FIG. 15). Mice were observed daily for signs of clinical disease. Disease severity was recorded as follows: grade 0, normal; grade 1, limp tail; grade 2, wobbly gait; grade 3, hind limb weakness; grade 4, hind limb paralysis and grade 5, tetraparalysis/death.

[6] = system: Bone marrow-derived dendritic cells (BMDCs); test: Cytokine production (ELISA) by BMDCs pre-treated with TCT, then stimulated with TLR agonists; type: cell-based, BALB/c mice
Method: Bone marrow-derived dendritic cells (BMDCs) from BALB/c mice were pre-treated with TCT (10 μg/ml) for 1, 6 and 12 hours before being stimulated with a range of concentrations of the TLR2 agonist, Pam-3Csk (10, 100, 1000 ng/ml), the TLR4 agonist, B. pertussis LPS (100, 1000, 10,000 pg/ml) and the TLR9 agonist, CpG (10, 100, 1000 ng/ml) for a further 12 hours. The concentration range chosen for each TLR agonist was based on preliminary experiments. Cytokine and chemokine concentrations were evaluated by ELISA.

[7] = system: Bone marrow-derived dendritic cells (BMDCs); test: as above; type: cell-based, BALB/c mice; remark: listed apart in the source
[8] = TCT 6 hours before KLH and alum
[9] = TCT 6 hours before KLH only or KLH and alum
[10] = TCT 6 hours before alum adsorbed KLH, day 14
[11] = TCT 6 hours before immunisation KLH
[12] = KLH and LPS, co-administration of TCT
[13] = KLH in alum, TCT 10 or 25 μg/mouse
[14] = KLH in alum, treatment with TCT
[15] = co-administration of TCT with KLH in PBS
[16] = TCT 10 μg/ml for 1, 6, 12 hours, Pam-3Csk 10, 100, 1000 ng/ml for 12 hours
[17] = TCT 10 μg/ml pre-treatment (particularly 1 hour), Pam-3Csk, B. pertussis LPS, CpG for 12 hours

In the case of `CC(=O)NC1C(OC2C3COC(O3)C(NC(C)=O)C2OC(C)C(=O)NC(C)C(=O)NC(CCC(=O)NC(CCCC(N)C(=O)NC(C)C(=O)O)C(=O)O)C(=O)O)OC(CO)C(O)C1O` (centres unmarked) [TCT, N-acetylglucosaminyl-1,6-anhydro-N-acetylmuramylalanyl-γ-glutamyldiaminopimelylalanine], the “ciliostasis and ciliated cell destruction” value [1] is given as “causes ciliostasis, ciliated cell destruction”, the “OVA-specific IFN-γ production” value [2] is given as “did not affect” and the “OVA-specific IL-4 production” value [2] is given as “significantly reduced”. The “OVA-specific IL-5 production” value [2] was “significantly reduced”, the “OVA-specific IL-13 production” value [2] was “significantly reduced” and the “IFN-gamma production, spleen cells” value [3, 8] was “reduced”. The “IL-4 production, spleen cells” value [3, 8] was “reduced”, the “IL-5 production, spleen cells” value [3, 8] was “reduced” and the “KLH-specific IL-10 production by lymph node cells” value [3, 8] was “severely impaired; also recorded: attenuated”. The “KLH-specific IL-10 production by spleen cells” value ([3]; TCT 6 hours before KLH and alum, p<0.001) was “significant reduction”, the “antigen-specific IgG1 titres” value [3, 9] was “no significant effect” and the “antigen-specific IgG2a titres” value [3, 9] was “no significant effect”. For the same molecule, the “total KLH-specific IgG production” value [3, 9] was “no significant effect”, the “proliferation response to KLH, lymph node cells” value [3, 10] was “reduction” and the “proliferation response to KLH, spleen cells” value [3, 10] was “reduction”. The “Antigen-specific IL-5 production, lymph node cells” value [3, 11] was “reduced”, the “antigen-specific IL-4 production, lymph node cells” value [3, 11] was “reduced” and the “IFN-gamma production, spleen cells” value ([3]; TCT before immunisation with KLH and PBS) was “reduced”. For the same molecule, the “proliferation response, spleen cells” value ([3]; mice immunised with KLH and PBS) was “reduced”, the “antigen-specific IFN-gamma, lymph node cells” value ([3]; mice immunised with KLH and alum) was “abrogated” and the “IFN-γ production promoted with LPS” value [4, 12] was “not affected”. The “IL-10 production promoted with LPS” value [4, 12] was “not affected”, the “IL-4 response, draining lymph node cells” value [4, 13] was “significantly reduced” and the “IL-5 response, draining lymph node cells” value [4, 13] was “significantly reduced”. The “IFN-γ production, draining lymph node cells” value [4, 14] was “not significantly affected”, the “IL-10 production, draining lymph node cells” value [4, 14] was “not significantly affected” and the IFN-γ response [4, 15] was “enhanced”. The IL-10 response [4, 15] was “enhanced”, the “first clinical signs of disease post induction” value ([5]; TCT 10 μg/mouse s.c. day 1 and every 3-4 days, untreated mice 12 days) was 18 days and the severity of disease ([5]; TCT 10 μg/mouse s.c., versus untreated control mice) was “lower than that observed in the untreated control mice”. For the same molecule, the “IL-10 production by B. pertussis LPS” value ([6]; LPS 10,000 pg/ml, TCT pre-treatment 1 and 6 hours) was “significant enhancement”, the “IL-10 production in response to the TLR-9 agonist CpG” value ([6]; TCT 10 μg/ml for 1, 6, 12 hours, CpG 10, 100, 1000 ng/ml for 12 hours) was “enhances” and the “IL-6 production in response to the TLR-4 agonist B. pertussis LPS” value ([6]; TCT 10 μg/ml for 1, 6, 12 hours, LPS 100, 1000, 10000 pg/ml for 12 hours) was “enhances”. The “IL-6 production in response to the TLR-2 agonist Pam-3Csk” value [6, 16] was “enhances”, the “IL-10 production in response to the TLR-2 agonist Pam-3Csk” value [6, 16] was “enhances” and the “IL-6 production by all the TLR agonists examined” value [6, 17] was “significantly enhanced”. The “IL-10 production by all the TLR agonists examined” value [6, 17] was “significantly enhanced”, the “IL-12p40 production induced by LPS” value ([6]; TCT 10 μg/ml pre-treatment, B. pertussis LPS) was “significantly reduced” and the “IL-12p40 production induced by Pam-3Csk” value ([6]; TCT 10 μg/ml pre-treatment, Pam-3Csk) was “significantly reduced”. For the same molecule, the “production of cytokines and chemokines examined” value ([6]; TCT alone (10 μg/ml), no TLR agonist) was “did not induce” and the “IL-10 production by dendritic cells in synergy with the TLR4 agonist MPL” value [7] was “enhances”.
